US10316017B2, “COT modulators and methods of use thereof” (Gilead Sciences, Inc., priority 2015, dated 2019)

How the values were obtained:
[1] = tested on: TNFα production in LPS-stimulated human monocytes; test: Cot Monocyte TNFα Cell Based Assay; settings: Homo sapiens, Monocyte, TNFα in LPS-stimulated human monocytes; read-out: EC50 TNF
In short: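 TNFα release quantified by two-antibody TR-FRET, normalised to unstimulated (0%) and LPS-stimulated (100%) wells. Cells got a 1 h compound exposure at 37° C in 0.5% DMSO before 4 h challenge with 50 pg/ml LPS, at 5,000 cells/well.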

[2] = target: T1, human Cot catalytic domain (30-397 amino acids) (Homo sapiens, UniProt P41279); test: High Throughput Cot Biochemical Assay (KinEASE TR-FRET); settings: Cot KinEASE TR-FRET (HTRF) biochemical assay, 400 μM ATP; read-out: IC50 HTRF
T1 construct: Purified recombinant human Cot catalytic domain (30-397 amino acids) was purchased from Cama Biosciences; purchased Cama Biosciences (so in the source)
In short: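 TR-FRET (KinEASE) read-out: Eu-labelled phospho-specific antibody binds XL665-tagged STK3 peptide (1 μM) phosphorylated by 5 nM human Cot kinase domain (residues 30-397). Reaction at 400 μM ATP, pH 7.0 MOPS buffer with 10 mM MgOAc, 1 mM DTT and 0.1% DMSO.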

T1 sequence (P41279 30-397): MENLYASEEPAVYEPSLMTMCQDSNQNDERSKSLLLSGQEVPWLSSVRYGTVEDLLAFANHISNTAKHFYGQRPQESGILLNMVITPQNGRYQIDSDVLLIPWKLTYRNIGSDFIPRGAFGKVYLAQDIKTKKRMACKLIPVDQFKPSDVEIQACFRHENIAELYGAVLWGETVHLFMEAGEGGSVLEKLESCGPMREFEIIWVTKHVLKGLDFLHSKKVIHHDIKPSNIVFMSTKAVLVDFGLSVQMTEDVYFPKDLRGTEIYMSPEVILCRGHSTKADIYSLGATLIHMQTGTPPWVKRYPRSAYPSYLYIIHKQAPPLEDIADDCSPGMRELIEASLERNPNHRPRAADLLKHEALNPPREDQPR

Compound	EC50 [1] [nM]	IC50 [2] [nM]
CC(C)CNc1c(C#N)cnc2c(Cl)cc(N[C@@H](c3ccc(F)cc3)c3cn(C4CC4)nn3)cc12 [Example 345, (S)-8-chloro-6-(((1-cyclopropyl-1H-1,2,3-triazol-4-yl)(4-fluorophenyl)methyl)amino)-4-(isobutylamino)quinoline-3-carbonitrile]	976	57
N#Cc1cnc2c(Cl)cc(N[C@@H](c3ccc(F)cc3)c3cn(C4CC4)nn3)cc2c1NCc1cncs1 [Example 346, (S)-8-chloro-6-(((1-cyclopropyl-1H-1,2,3-triazol-4-yl)(4-fluorophenyl)methyl)amino)-4-((thiazol-5-ylmethyl)amino)quinoline-3-carbonitrile]	6100	338
N#Cc1cnc2c(Cl)cc(N[C@@H](c3ccc(F)cc3)c3cn(C4CC4)nn3)cc2c1NC(CC(F)(F)F)c1ccccc1 (stereo partly drawn) [Example 347, 8-chloro-6-(((S)-(1-cyclopropyl-1H-1,2,3-triazol-4-yl)(4-fluorophenyl)methyl)amino)-4-((3,3,3-trifluoro-1-phenylpropyl)amino)quinoline-3-carbonitrile]	773	24
N#Cc1cnc2c(Cl)cc(N[C@@H](c3ccc(F)cc3)c3cn(C4CC4)nn3)cc2c1NCC1CCCOC1 (stereo partly drawn) [Example 348, 8-chloro-6-(((S)-(1-cyclopropyl-1H-1,2,3-triazol-4-yl)(4-fluorophenyl)methyl)amino)-4-(((tetrahydro-2H-pyran-3-yl)methyl)amino)quinoline-3-carbonitrile]	1200	44
CC(F)(F)CNc1c(C#N)cnc2c(Cl)cc(N[C@@H](c3ccc(F)cc3)c3cn(C4CC4)nn3)cc12 [Example 349, (S)-8-chloro-6-(((1-cyclopropyl-1H-1,2,3-triazol-4-yl)(4-fluorophenyl)methyl)amino)-4-((2,2-difluoropropyl)amino)quinoline-3-carbonitrile]	687	131
CC(C)(CNc1c(C#N)cnc2c(Cl)cc(N[C@@H](c3ccc(F)cc3)c3cn(C4CC4)nn3)cc12)c1ccccc1 [Example 350, (S)-8-chloro-6-(((1-cyclopropyl-1H-1,2,3-triazol-4-yl)(4-fluorophenyl)methyl)amino)-4-((2-methyl-2-phenylpropyl)amino) quinoline-3-carbonitrile]	387	9
[2H][C@](Nc1cc(C#N)c2ncc(C#N)c(Nc3cnc(F)c(F)c3)c2c1)(c1ccc(F)cc1)c1cn(C2CC2)nn1 [Example 351, (S)-6-(((1-cyclopropyl-1H-1,2,3-triazol-4-yl)(4-fluorophenyl)methyl-d)amino)-4-((5,6-difluoropyridin-3-yl)amino)quinoline-3,8-dicarbonitrile]	206	6
[2H][C@](Nc1cc(Cl)c2ncc(C#N)c(Nc3cnc(F)c(F)c3)c2c1)(c1ccc(F)cc1)c1c[nH]nn1 [Example 352, (S)-8-chloro-4-((5,6-difluoropyridin-3-yl)amino)-6-(((4-fluorophenyl) (1H-1,2,3-triazol-4-yl)methyl-d)amino) quinoline-3-carbonitrile]	1290	21
N#Cc1cnc2c(Cl)cc(N[C@@H](c3ccc(F)cc3)c3c[nH]nn3)cc2c1Nc1cncc(F)c1 [Example 353, (S)-8-chloro-6-(((4-fluorophenyl)(1H-1,2,3-triazol-4-yl)methyl)amino)-4-((5-fluoropyridin-3-yl)amino)quinoline-3-carbonitrile]	3180	104
[2H]C(Nc1cc(Cl)c2ncc(C#N)c(N[C@H](CC)c3ccccc3)c2c1)(c1ccc(F)cc1)c1cn(C2CC2)cn1 (stereo partly drawn) [Example 354, 8-chloro-6-(((1-cyclopropyl-1H-imidazol-4-yl)(4-fluorophenyl)methyl-d)amino)-4-(((R)-1-phenylpropyl)amino) quinoline-3-carbonitrile]	689	86
[2H]C(Nc1cc(Cl)c2ncc(C#N)c(Nc3cnc(F)c(F)c3)c2c1)(c1ccc(F)cc1)c1cn(C2CC2)cn1 (centres unmarked) [Example 355, 8-chloro-6-(((1-cyclopropyl-1H-imidazol-4-yl)(4-fluorophenyl)methyl-d)amino)-4-((5,6-difluoropyridin-3-yl)amino)quinoline-3-carbonitrile]	4660	121
[2H][C@@](Nc1cc(Cl)c2ncc(C#N)c(NC3(c4ccccc4)CC3)c2c1)(c1cn(C2CC2)nn1)c1ccccc1Cl [Example 356]	6660	550
[2H][C@@](Nc1cc(Cl)c2ncc(C#N)c(N[C@H](CC)c3ccccc3)c2c1)(c1cn(C2CC2)nn1)c1ccccc1Cl [Example 357, 8-chloro-6-(((S)-(2-chlorophenyl)(1-cyclopropyl-1H-1,2,3-triazol-4-yl)methyl-d)amino)-4-(((R)-1-phenylpropyl)amino) quinoline-3-carbonitrile]	522	20
[2H][C@@](Nc1cc(Cl)c2ncc(C#N)c(Nc3cnc(F)c(F)c3)c2c1)(c1cn(C2CC2)nn1)c1ccccc1Cl [Example 358, (S)-8-chloro-6-(((2-chlorophenyl)(1-cyclopropyl-1H-1,2,3-triazol-4-yl)methyl-d)amino)-4-((5,6-difluoropyridin-3-yl)amino)quinoline-3-carbonitrile]	673	12
[2H][C@](Nc1cc(Cl)c2ncc(C#N)c(Nc3cnc(F)c(F)c3)c2c1)(c1ccc(F)cc1)c1cn(C2CS(=O)(=O)C2)nn1 [Example 359, (S)-8-chloro-4-((5,6-difluoropyridin-3-yl)amino)-6-(((1-(1,1-dioxidothietan-3-yl)-1H-1,2,3-triazol-4-yl)(4-fluorophenyl)methyl-d)amino)quinoline-3-carbonitrile]	2260	53
[2H][C@](Nc1cc(Cl)c2ncc(C#N)c(Nc3cnc(F)c(F)c3)c2c1)(c1ccc(F)cc1)c1cn([C@@H](C)CF)nn1 [Example 360, 8-chloro-4-((5,6-difluoropyridin-3-yl)amino)-6-(((S)-(4-fluorophenyl)(1-((S)-1-fluoropropan-2-yl)-1H-1,2,3-triazol-4-yl)methyl-d)amino)quinoline-3-carbonitrile]	423	21
CC(C)n1cc([C@@H](Nc2cc(Cl)c3ncc(C#N)c(NC(CC#N)c4ccccc4)c3c2)c2ccc(F)cc2)nn1 (stereo partly drawn) [Example 362, 8-chloro-4-((2-cyano-1-phenylethyl)amino)-6-(((S)-(4-fluorophenyl)(1-isopropyl-1H-1,2,3-triazol-4-yl)methyl)amino)quinoline-3-carbonitrile]	83	5
CC(C)n1cc([C@@H](Nc2cc(Cl)c3ncc(C#N)c(N[C@H](c4ccccc4)C(F)(F)F)c3c2)c2ccc(F)cc2)nn1 [Example 363, 8-chloro-6-(((S)-(4-fluorophenyl)(1-isopropyl-1H-1,2,3-triazol-4-yl)methyl)amino)-4-(((R)-2,2,2-trifluoro-1-phenylethyl)amino)quinoline-3-carbonitrile]	> 10000	874
CC(C)n1cc([C@@H](Nc2cc(Cl)c3ncc(C#N)c(N[C@@H](c4ccccc4)C(F)(F)F)c3c2)c2ccc(F)cc2)nn1 [Example 364, 8-chloro-6-(((S)-(4-fluorophenyl)(1-isopropyl-1H-1,2,3-triazol-4-yl)methyl)amino)-4-(((S)-2,2,2-trifluoro-1-phenylethyl)amino)quinoline-3-carbonitrile]	631	48
